# Data as given in US20100216886A1, “POLYMORPHS OF N2-(1,1'-BIPHENYL-4-YLCARBONYL)-N1-[2-(4-FLUOROPHENYL)-1,1-DIMETHYLETHYL]-L-ALPHA-GLUTAMINE” (Wyeth, priority 2006, published 2010).
# How the values were obtained:
# physchem = test: physchem
# Experimental: The pH solubility profile was generated first with Sample D containing polymorph Form A, and then with Sample F containing polymorph Form B, in HCl/NaOH solutions. After 24 hour equilibration, suspensions were centrifuged and the supernatants assayed by HPLC.
# The solubility data was analyzed as a function of pH using the Henderson-Hasselbach equation:
# Solubility=S0·[10^(PH-pKa)+1],
# where S0 is the intrinsic solubility of the free acid.
# [1] = First CACO-2 study, metoprolol as reference; conditions: human; for recovery: Caco-2, pH 7.4, % Recovery, pH 7.4
# CACO-2 [2] = test: First CACO-2 study, metoprolol as reference; conditions: for Ratio to Metoprolol: pH 7.4
# [3] = In situ rat perfusion model, metoprolol as reference; assay type: in vivo; conditions: rat
# Source text: The permeability was 18.2 nm/sec, which is higher than the 14.5 nm/sec value obtained for metoprolol (Table 13).
# [4] = Oral bioavailability in rat; conditions: in vivo, read-out: Oral bioavailability (F %)
# Experimental: (§1) Solubility is enhanced slightly in the 2% Tween/0.5% methylcellulose toxicology vehicle, ranging from […]. 2% Tween may also increase GI membrane permeability.
# (§2) A prolonged absorption phase was observed together with decreasing bioavailability with increasing dose in both animal species. […] However, the absorption at pharmacological doses seemed reasonably complete albeit with delayed Tmax at lower GI when the drug is more soluble.
# [5] = Solubility in water and toxicology vehicle (animal formulation); assay type: physicochemical
# Experimental: as §1
# [6] = Forced degradation study (solution stability); assay type: physicochemical; conditions: 387 μg/mL with 25% acetonitrile in acid, base, peroxide and water under heat and light stress
# Experimental: A forced degradation study was performed to generate potential degradation products and assess stability liabilities.
# [7] = Slurry in water at 50° C. (polymorphic transformation); assay type: physicochemical; conditions: slurry in water at 50° C. for 12-24 hr
# Experimental: Powder XRD patterns comparing the starting material to polymorph pseudo Form A are shown in FIG. 34, and DSC thermograms of both batches at 50° C. are shown in FIG. 35.
# [8] = Oral bioavailability in dog; conditions: in vivo, read-out: Oral bioavailability (F %)
# Experimental: as §1, §2
# [9] = Solubility in various solvents at 25° C. and 50° C.; assay type: physicochemical
# [10] = Second CACO-2 study, propranolol as reference; assay type: in vitro ADME; conditions: human, Caco-2
# Source text: (§3) The second CACO-2 study gave somewhat different results (Table 12). Because metoprolol interferes with the LC/MS assay, propranolol, which has a permeability that is […] metoprolol, was used as the FDA calibration compound. The apical pH was controlled at 6 and basolateral pH at pH 7. In addition, verapamil was used as a competitive inhibitor of the Pgp (P-glycoprotein) transporter. The ratios to propranolol were 1.00 and 0.77 with and without verapamil. […] The B→A/A→B ratios were low at 0.3 and 0.3, with and without verapamil, respectively, indicating again no efflux […].
# CACO-2 [11] = test: Second CACO-2 study, propranolol as reference; assay type: in vitro ADME; conditions: for Ratio to Propranolol: A → B
# Source text: as §3
# CACO-2 [12] = conditions: human, Caco-2, pH 7.4
# in vitro = conditions: human, Caco-2, pH 7.4
compound,measurement,setting,value
"CC(C)(Cc1ccc(F)cc1)NC(=O)[C@H](CCC(=O)O)NC(=O)c1ccc(-c2ccccc2)cc1 [Compound (I), N^2-(1,1′-biphenyl-4-ylcarbonyl)-N^1-[2-(4-fluorophenyl)-1,1-dimethylethyl]-L-α-glutamine]",pKa,physchem,5.3
same,solubility at 24 h,"physchem; aqueous buffer, thermodynamic from solid, S0 (intrinsic solubility of the free acid)",4.5 µg/mL
same,Papp A→B,"[1]; Caco-2, pH 7.4",14.9 ×10⁻⁶ cm/s
same,Papp B→A,"[1]; Caco-2, pH 7.4",37.4 ×10⁻⁶ cm/s
same,efflux ratio,"[1]; Caco-2, pH 7.4",2.36
same,recovery,[1]; A → B,100%
same,recovery,[1]; B → A,156%
same,Ratio to Metoprolol,CACO-2 [2]; A → B,0.25
same,Ratio to Metoprolol,CACO-2 [2]; B → A,0.59
same,Permeability classification,"CACO-2 [2]; pH 7.4, versus metoprolol",low permeability
same,Papp at 20 μg/mL,[3],1.82 ×10⁻⁶ cm/s
same,Permeability classification,[3],high permeability
same,Peff × 10^−1 (μm/sec),"[3]; in vivo, 20 μg/mL",1.82 × 10^−1 μm/sec
same,Ratio to Metoprolol,"[3]; in vivo, 20 μg/mL",1.26
same,bioavailability,[4]; 100 mg/kg,~100%
same,bioavailability,"[4]; Tox suspension, 25 mg/kg",29%
same,solubility,"[5]; 2% Tween/0.5% methylcellulose toxicology vehicle, aqueous with cosolvent or surfactant or cyclodextrin, read-out: Solubility in toxicology vehicle",220 to 470 µg/mL
same,resulting pH,[5]; water,around 5.5
same,solubility,"[5]; water, pH 5.5, water, read-out: solubility in water",< 100 µg/mL
same,Forced degradation result,[6],subject to acid and peroxide degradation
same,Change of powder XRD pattern or melting point / polymorphic transformation,[7],not observed
same,bioavailability,"[8]; Tox suspension, 25 mg/kg",~100%
same,bioavailability,[8]; capsule containing neat drug,65%
same,solubility,"[9]; Water, 25° C.",1600 µg/mL
same,solubility,"[9]; Water, 50° C.",1800 µg/mL
same,solubility,"[9]; organic solvent or mixture, Acetonitrile, 25° C.",43000 µg/mL
same,solubility,"[9]; organic solvent or mixture, Acetonitrile, 50° C.",> 133000 µg/mL
same,solubility,"[9]; organic solvent or mixture, EtAc (ethyl acetate), 25° C.",> 109000 µg/mL
same,solubility,"[9]; organic solvent or mixture, Ethanol, 25° C.",> 137000 µg/mL
same,solubility,"[9]; organic solvent or mixture, Heptane, 25° C.",700 µg/mL
same,solubility,"[9]; organic solvent or mixture, Isopropyl acetate (IPAc), 25° C.",76100 µg/mL
same,solubility,"[9]; organic solvent or mixture, Isopropyl acetate (IPAc), 50° C.",> 123000 µg/mL
same,solubility,"[9]; organic solvent or mixture, Isopropyl alcohol (IPA), 25° C.",> 122000 µg/mL
same,solubility,"[9]; organic solvent or mixture, Toluene, 25° C.",4300 µg/mL
same,solubility,"[9]; organic solvent or mixture, Toluene, 50° C.",15600 µg/mL
same,Papp A→B,"[10]; A → B, apical pH 6, basolateral pH 7, without verapamil",62.4 ×10⁻⁶ cm/s
same,Papp B→A,"[10]; B → A, apical pH 6, basolateral pH 7, without verapamil",18.5 ×10⁻⁶ cm/s
same,efflux ratio,"[10]; without verapamil, read-out: Ratio of B→A/A→B",0.3
same,Ratio to Propranolol,CACO-2 [11]; plus Verapamil,0.77
same,Ratio to Propranolol,CACO-2 [11]; without verapamil,1.00
same,mean ratio to propranolol,CACO-2 [11]; average of values with and without verapamil,0.88
same,Ratio of B→A/A→B,CACO-2 [11]; plus Verapamil,0.3
same,Permeability classification,CACO-2 [11]; versus propranolol,low permeability
same,Ratio of B→A/A→B,CACO-2 [11]; without verapamil,0.3
C[C@H]1O[C@@H](O[C@H]2[C@@H](O)C[C@H](O[C@H]3[C@@H](O)C[C@H](O[C@H]4CC[C@@]5(C)[C@H](CC[C@@H]6[C@@H]5C[C@@H](O)[C@]5(C)[C@@H](C7=CC(=O)OC7)CC[C@]65O)C4)O[C@@H]3C)O[C@@H]2C)C[C@H](O)[C@@H]1O [DigoxinS],% Recovery,CACO-2 [12],117%
same,Papp A→B,in vitro,2.06 ×10⁻⁶ cm/s
same,Papp B→A,in vitro,29.4 ×10⁻⁶ cm/s
